Test results: the kinase profiling compilation of Christmann-Franck et al. (2016)

What was measured:
Assay in all cases: KINOMEscan competition binding
RIOK3 (human) = RIOK3 (human) (UniProt O14730)
[1] = tested on: PIK3CA (human), P42336 [I800L]
TESK1 (human) = TESK1 (human) (UniProt Q15569)
PAK2 (human) = PAK2 (human) (UniProt Q13177)
PRKCE (human) = PRKCE (human) (UniProt Q02156)
EPHA3 (human) = EPHA3 (human) (UniProt P29320)
[2] = tested on: PIK3CA (human), P42336 [H1047L]
MAP3K7 (human) = MAP3K7 (human) (UniProt O43318)
STK33 (human) = STK33 (human) (UniProt Q9BYT3)
MAP3K6 (human) = MAP3K6 (human) (UniProt O95382)
PAK3 (human) = PAK3 (human) (UniProt O75914)
TTK (human) = TTK (human) (UniProt P33981)
MARK1 (human) = MARK1 (human) (UniProt Q9P0L2)
CASK (human) = CASK (human) (UniProt O14936)
DYRK1A (human) = DYRK1A (human) (UniProt Q13627)
CHEK1 (human) = CHEK1 (human) (UniProt O14757)
IGF1R (human) = IGF1R (human) (UniProt P08069)
AKT2 (human) = AKT2 (human) (UniProt P31751)
ADCK3 (human) = ADCK3 (human) (UniProt Q8NI60)
MAPK15 (human) = MAPK15 (human) (UniProt Q8TD08)
CaMK1 (human) = CaMK1 (human) (UniProt Q14012)
MAP3K1 (human) = MAP3K1 (human) (UniProt Q13233)
CDK15 (human) = CDK15 (human) (UniProt Q96Q40)
ULK3 (human) = ULK3 (human) (UniProt Q6PHR2)
CDK14 (human) = CDK14 (human) (UniProt O94921)
STK17B (human) = STK17B (human) (UniProt O94768)
PLK1 (human) = PLK1 (human) (UniProt P53350)
MLTK (human) = MLTK (human) (UniProt Q9NYL2)
GSK3A (human) = GSK3A (human) (UniProt P49840)
STK4 (human) = STK4 (human) (UniProt Q13043)
DCLK3 (human) = DCLK3 (human) (UniProt Q9C098)
RIOK2 (human) = RIOK2 (human) (UniProt Q9BVS4)
[3] = tested on: ABL1 (human), P00519 [E255K]
CAMK4 (human) = CAMK4 (human) (UniProt Q16566)
TRPM6 (human) = TRPM6 (human) (UniProt Q9BX84)
EIF2AK2 (human) = EIF2AK2 (human) (UniProt P19525)
FGFR2 (human) = FGFR2 (human) (UniProt P21802)
[4] = tested on: PIK3CA (human), P42336 [M1043I]
RPS6KA5 KD1 (human) = RPS6KA5 KD1 (human) (UniProt O75582)
SNRK (human) = SNRK (human) (UniProt Q9NRH2)
[5] = tested on: EGFR (human), P00533 [P753S; 747-752 del]
IRAK3 (human) = IRAK3 (human) (UniProt Q9Y616)

Chain of GSK3A (human) (P49840 whole entry, looked up): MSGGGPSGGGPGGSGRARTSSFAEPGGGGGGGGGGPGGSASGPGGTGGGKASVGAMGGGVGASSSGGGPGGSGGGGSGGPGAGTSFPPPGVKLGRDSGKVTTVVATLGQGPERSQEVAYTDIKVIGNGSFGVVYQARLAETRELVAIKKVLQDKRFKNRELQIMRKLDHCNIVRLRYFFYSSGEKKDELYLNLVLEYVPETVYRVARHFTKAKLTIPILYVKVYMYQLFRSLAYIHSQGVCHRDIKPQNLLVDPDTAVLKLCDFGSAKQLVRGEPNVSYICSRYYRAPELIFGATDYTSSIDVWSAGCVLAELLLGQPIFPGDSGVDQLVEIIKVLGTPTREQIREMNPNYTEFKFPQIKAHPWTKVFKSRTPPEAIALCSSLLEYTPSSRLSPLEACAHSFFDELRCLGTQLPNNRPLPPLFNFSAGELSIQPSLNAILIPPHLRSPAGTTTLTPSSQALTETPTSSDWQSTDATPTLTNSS
Chain of PIK3CA (human), P42336 [M1043I] (P42336 whole entry M1043I, looked up): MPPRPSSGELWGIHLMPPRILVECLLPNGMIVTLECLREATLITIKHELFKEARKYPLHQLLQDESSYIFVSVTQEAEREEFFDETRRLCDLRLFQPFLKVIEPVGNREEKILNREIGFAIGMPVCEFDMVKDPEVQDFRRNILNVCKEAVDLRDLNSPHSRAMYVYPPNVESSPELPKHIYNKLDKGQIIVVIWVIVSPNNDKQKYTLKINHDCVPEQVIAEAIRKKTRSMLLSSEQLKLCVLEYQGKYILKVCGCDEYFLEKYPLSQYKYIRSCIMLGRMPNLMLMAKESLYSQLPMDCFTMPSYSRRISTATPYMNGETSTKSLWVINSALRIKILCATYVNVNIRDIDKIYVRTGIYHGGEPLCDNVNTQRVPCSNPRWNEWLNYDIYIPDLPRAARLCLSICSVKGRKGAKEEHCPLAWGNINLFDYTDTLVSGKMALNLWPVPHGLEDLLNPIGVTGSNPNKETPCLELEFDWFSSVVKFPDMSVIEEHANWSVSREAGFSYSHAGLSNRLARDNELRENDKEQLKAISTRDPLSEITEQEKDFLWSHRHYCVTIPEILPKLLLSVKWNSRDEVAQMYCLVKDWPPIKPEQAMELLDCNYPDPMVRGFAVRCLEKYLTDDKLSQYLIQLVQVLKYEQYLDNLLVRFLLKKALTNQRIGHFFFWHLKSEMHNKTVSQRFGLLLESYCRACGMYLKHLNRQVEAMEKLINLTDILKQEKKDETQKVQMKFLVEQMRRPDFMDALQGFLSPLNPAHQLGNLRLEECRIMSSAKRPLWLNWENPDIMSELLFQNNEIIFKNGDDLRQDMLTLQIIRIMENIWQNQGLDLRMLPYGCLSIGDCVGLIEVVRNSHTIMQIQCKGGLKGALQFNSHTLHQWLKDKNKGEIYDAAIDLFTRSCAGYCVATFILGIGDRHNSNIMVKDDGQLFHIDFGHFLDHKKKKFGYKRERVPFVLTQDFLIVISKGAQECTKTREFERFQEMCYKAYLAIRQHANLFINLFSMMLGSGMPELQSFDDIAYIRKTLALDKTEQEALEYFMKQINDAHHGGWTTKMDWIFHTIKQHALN
Chain of ULK3 (human) (Q6PHR2 whole entry, looked up): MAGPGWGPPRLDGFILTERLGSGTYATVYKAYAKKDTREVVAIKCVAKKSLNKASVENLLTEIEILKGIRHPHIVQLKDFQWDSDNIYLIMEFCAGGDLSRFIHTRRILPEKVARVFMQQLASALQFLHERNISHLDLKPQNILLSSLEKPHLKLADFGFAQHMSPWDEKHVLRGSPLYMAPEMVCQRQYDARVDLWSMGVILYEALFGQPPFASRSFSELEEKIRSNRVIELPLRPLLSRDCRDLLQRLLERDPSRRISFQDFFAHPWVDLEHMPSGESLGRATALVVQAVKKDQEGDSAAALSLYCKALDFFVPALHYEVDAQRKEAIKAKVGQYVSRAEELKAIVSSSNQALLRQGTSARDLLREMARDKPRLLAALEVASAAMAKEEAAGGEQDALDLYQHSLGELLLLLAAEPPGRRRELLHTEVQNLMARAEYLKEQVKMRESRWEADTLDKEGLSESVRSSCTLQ
Chain of CAMK4 (human) (Q16566 whole entry, looked up): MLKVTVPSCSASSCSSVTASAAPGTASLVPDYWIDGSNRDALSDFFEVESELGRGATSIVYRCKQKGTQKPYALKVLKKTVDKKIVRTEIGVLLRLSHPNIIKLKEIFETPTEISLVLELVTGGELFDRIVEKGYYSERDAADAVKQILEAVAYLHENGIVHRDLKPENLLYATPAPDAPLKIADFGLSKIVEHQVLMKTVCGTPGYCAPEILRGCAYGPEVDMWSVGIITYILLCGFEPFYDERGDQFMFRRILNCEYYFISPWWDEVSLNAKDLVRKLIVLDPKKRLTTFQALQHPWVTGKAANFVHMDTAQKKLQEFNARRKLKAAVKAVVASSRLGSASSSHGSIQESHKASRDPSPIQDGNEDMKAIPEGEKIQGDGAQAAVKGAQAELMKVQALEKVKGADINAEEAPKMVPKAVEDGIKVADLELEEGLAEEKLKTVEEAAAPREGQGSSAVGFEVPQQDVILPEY
Chain of CaMK1 (human) (Q14012 whole entry, looked up): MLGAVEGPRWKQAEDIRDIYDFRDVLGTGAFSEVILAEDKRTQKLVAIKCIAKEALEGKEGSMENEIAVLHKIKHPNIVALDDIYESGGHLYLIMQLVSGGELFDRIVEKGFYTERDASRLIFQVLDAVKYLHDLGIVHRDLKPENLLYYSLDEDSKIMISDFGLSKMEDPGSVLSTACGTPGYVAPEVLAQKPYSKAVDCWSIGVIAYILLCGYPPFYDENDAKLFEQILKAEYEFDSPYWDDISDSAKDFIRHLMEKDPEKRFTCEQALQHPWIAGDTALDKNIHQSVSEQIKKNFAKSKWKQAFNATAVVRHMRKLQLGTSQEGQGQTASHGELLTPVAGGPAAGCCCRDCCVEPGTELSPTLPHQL
Chain of PAK3 (human) (O75914 whole entry, looked up): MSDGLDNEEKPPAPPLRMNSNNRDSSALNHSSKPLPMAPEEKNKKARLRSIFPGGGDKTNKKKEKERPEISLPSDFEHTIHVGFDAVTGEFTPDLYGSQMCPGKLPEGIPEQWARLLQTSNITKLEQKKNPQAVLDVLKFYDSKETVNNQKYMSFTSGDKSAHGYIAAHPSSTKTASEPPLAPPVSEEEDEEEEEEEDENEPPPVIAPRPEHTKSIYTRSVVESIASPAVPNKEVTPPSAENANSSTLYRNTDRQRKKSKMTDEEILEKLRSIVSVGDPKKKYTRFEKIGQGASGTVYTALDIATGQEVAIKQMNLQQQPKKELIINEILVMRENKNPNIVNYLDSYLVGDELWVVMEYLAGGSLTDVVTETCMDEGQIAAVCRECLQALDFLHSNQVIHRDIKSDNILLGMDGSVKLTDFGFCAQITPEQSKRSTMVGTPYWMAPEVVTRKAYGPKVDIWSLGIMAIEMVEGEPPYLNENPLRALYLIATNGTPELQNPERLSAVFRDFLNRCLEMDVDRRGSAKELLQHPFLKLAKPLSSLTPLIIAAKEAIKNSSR
Chain of MAPK15 (human) (Q8TD08 whole entry, looked up): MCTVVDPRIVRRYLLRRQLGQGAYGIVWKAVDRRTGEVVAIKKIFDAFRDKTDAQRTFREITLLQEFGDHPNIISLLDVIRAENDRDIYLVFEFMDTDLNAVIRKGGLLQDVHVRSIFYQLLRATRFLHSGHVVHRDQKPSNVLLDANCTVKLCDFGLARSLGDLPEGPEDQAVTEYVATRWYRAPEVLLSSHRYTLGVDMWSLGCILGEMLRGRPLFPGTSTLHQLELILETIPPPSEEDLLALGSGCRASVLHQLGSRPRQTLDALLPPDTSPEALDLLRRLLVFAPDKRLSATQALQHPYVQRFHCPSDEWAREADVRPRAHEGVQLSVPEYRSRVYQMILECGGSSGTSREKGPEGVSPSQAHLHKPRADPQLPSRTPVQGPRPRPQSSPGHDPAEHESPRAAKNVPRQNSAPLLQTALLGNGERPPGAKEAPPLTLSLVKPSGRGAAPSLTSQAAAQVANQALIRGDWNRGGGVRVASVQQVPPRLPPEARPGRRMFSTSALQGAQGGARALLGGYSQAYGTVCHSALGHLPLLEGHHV
Chain of MAP3K7 (human) (O43318 whole entry, looked up): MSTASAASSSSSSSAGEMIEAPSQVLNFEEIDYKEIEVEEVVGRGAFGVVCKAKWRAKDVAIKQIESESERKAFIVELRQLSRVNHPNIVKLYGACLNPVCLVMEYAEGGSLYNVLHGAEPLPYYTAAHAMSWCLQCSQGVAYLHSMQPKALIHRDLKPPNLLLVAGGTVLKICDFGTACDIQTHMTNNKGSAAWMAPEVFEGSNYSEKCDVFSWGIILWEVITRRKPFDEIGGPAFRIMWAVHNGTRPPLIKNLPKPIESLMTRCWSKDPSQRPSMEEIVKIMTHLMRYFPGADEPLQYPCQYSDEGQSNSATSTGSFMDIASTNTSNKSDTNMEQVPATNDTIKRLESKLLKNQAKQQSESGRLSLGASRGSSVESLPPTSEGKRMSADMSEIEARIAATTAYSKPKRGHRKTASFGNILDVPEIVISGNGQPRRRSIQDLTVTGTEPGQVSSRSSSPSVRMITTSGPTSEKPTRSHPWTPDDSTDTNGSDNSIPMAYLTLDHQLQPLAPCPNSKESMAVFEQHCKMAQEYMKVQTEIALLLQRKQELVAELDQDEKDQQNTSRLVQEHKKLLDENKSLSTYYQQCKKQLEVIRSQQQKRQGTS
Chain of PIK3CA (human), P42336 [I800L] (P42336 whole entry I800L, looked up): as the sequence (P42336 whole entry M1043I, looked up) above, with I800L, I1043M counted along it
Chain of STK17B (human) (O94768 whole entry, looked up): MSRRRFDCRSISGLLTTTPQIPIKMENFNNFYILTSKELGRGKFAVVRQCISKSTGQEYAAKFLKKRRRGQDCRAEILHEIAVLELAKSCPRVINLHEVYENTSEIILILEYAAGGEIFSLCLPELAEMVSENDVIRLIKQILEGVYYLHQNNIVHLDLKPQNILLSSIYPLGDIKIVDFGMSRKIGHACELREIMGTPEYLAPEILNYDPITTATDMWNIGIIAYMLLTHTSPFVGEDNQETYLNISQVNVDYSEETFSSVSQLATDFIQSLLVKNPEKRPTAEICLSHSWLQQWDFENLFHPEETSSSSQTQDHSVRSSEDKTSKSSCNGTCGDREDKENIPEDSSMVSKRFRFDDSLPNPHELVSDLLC

SMILES: CN(C)C/C=C/C(=O)Nc1cccc(C(=O)Nc2ccc(Nc3nccc(-c4c(-c5ccccc5)nn5ccccc45)n3)cc2)c1
- kinase still bound, per cent of control (RIOK3 (human); compound 1.0 µM): 97%
- kinase still bound, per cent of control ([1]; compound 1.0 µM): 77%
- kinase still bound, per cent of control (TESK1 (human); compound 1.0 µM): 99%
- kinase still bound, per cent of control (PAK2 (human); compound 1.0 µM): 88%
- kinase still bound, per cent of control (PRKCE (human); compound 1.0 µM): 93%
- kinase still bound, per cent of control (EPHA3 (human); compound 1.0 µM): 65%
- kinase still bound, per cent of control ([2]; compound 1.0 µM): 77%
- kinase still bound, per cent of control (MAP3K7 (human); compound 1.0 µM): 47%
- kinase still bound, per cent of control (STK33 (human); compound 1.0 µM): 91%
- kinase still bound, per cent of control (MAP3K6 (human); compound 1.0 µM): 100%
- kinase still bound, per cent of control (PAK3 (human); compound 1.0 µM): 52%
- kinase still bound, per cent of control (TTK (human); compound 1.0 µM): 94%
- kinase still bound, per cent of control (MARK1 (human); compound 1.0 µM): 100%
- kinase still bound, per cent of control (CASK (human); compound 1.0 µM): 52%
- kinase still bound, per cent of control (DYRK1A (human); compound 1.0 µM): 90%
- kinase still bound, per cent of control (CHEK1 (human); compound 1.0 µM): 100%
- kinase still bound, per cent of control (IGF1R (human); compound 1.0 µM): 100%
- kinase still bound, per cent of control (AKT2 (human); compound 1.0 µM): 100%
- kinase still bound, per cent of control (ADCK3 (human); compound 1.0 µM): 0%
- kinase still bound, per cent of control (MAPK15 (human); compound 1.0 µM): 93%
- kinase still bound, per cent of control (CaMK1 (human); compound 1.0 µM): 100%
- kinase still bound, per cent of control (MAP3K1 (human); compound 1.0 µM): 96%
- kinase still bound, per cent of control (CDK15 (human); compound 1.0 µM): 100%
- kinase still bound, per cent of control (ULK3 (human); compound 1.0 µM): 84%
- kinase still bound, per cent of control (CDK14 (human); compound 1.0 µM): 100%
- kinase still bound, per cent of control (STK17B (human); compound 1.0 µM): 100%
- kinase still bound, per cent of control (PLK1 (human); compound 1.0 µM): 100%
- kinase still bound, per cent of control (MLTK (human); compound 1.0 µM): 11%
- kinase still bound, per cent of control (GSK3A (human); compound 1.0 µM): 38%
- kinase still bound, per cent of control (STK4 (human); compound 1.0 µM): 4.2%
- kinase still bound, per cent of control (DCLK3 (human); compound 1.0 µM): 86%
- kinase still bound, per cent of control (RIOK2 (human); compound 1.0 µM): 27%
- kinase still bound, per cent of control ([3]; compound 1.0 µM): 12%
- kinase still bound, per cent of control (CAMK4 (human); compound 1.0 µM): 100%
- kinase still bound, per cent of control (TRPM6 (human); compound 1.0 µM): 100%
- kinase still bound, per cent of control (EIF2AK2 (human); compound 1.0 µM): 92%
- kinase still bound, per cent of control (FGFR2 (human); compound 1.0 µM): 49%
- kinase still bound, per cent of control ([4]; compound 1.0 µM): 100%
- kinase still bound, per cent of control (RPS6KA5 KD1 (human); compound 1.0 µM): 100%
- kinase still bound, per cent of control (SNRK (human); compound 1.0 µM): 100%
- kinase still bound, per cent of control ([5]; compound 1.0 µM): 7%
- kinase still bound, per cent of control (IRAK3 (human); compound 1.0 µM): 64%

SMILES: Cc1ccc(NC(=O)c2ccc(NC(=O)/C=C/CN(C)C)cc2)cc1Nc1nccc(-c2cccnc2)n1
- kinase still bound, per cent of control (RIOK3 (human); compound 10.0 µM): 47%
- kinase still bound, per cent of control ([1]; compound 10.0 µM): 88%
- kinase still bound, per cent of control (TESK1 (human); compound 10.0 µM): 100%
- kinase still bound, per cent of control (PAK2 (human); compound 10.0 µM): 80%
- kinase still bound, per cent of control (PRKCE (human); compound 10.0 µM): 100%
- kinase still bound, per cent of control (EPHA3 (human); compound 10.0 µM): 83%
- kinase still bound, per cent of control ([2]; compound 10.0 µM): 89%
- kinase still bound, per cent of control (MAP3K7 (human); compound 10.0 µM): 61%
- kinase still bound, per cent of control (STK33 (human); compound 10.0 µM): 97%
- kinase still bound, per cent of control (MAP3K6 (human); compound 10.0 µM): 100%
- kinase still bound, per cent of control (PAK3 (human); compound 10.0 µM): 68%
- kinase still bound, per cent of control (TTK (human); compound 10.0 µM): 83%
- kinase still bound, per cent of control (MARK1 (human); compound 10.0 µM): 93%
- kinase still bound, per cent of control (CASK (human); compound 10.0 µM): 79%
- kinase still bound, per cent of control (DYRK1A (human); compound 10.0 µM): 98%
- kinase still bound, per cent of control (CHEK1 (human); compound 10.0 µM): 100%
- kinase still bound, per cent of control (IGF1R (human); compound 10.0 µM): 100%
- kinase still bound, per cent of control (AKT2 (human); compound 10.0 µM): 100%
- kinase still bound, per cent of control (ADCK3 (human); compound 10.0 µM): 76%
- kinase still bound, per cent of control (MAPK15 (human); compound 10.0 µM): 100%
- kinase still bound, per cent of control (CaMK1 (human); compound 10.0 µM): 75%
- kinase still bound, per cent of control (MAP3K1 (human); compound 10.0 µM): 100%
- kinase still bound, per cent of control (CDK15 (human); compound 10.0 µM): 100%
- kinase still bound, per cent of control (ULK3 (human); compound 10.0 µM): 100%
- kinase still bound, per cent of control (CDK14 (human); compound 10.0 µM): 100%
- kinase still bound, per cent of control (STK17B (human); compound 10.0 µM): 64%
- kinase still bound, per cent of control (PLK1 (human); compound 10.0 µM): 83%
- kinase still bound, per cent of control (MLTK (human); compound 10.0 µM): 78%
- kinase still bound, per cent of control (GSK3A (human); compound 10.0 µM): 100%
- kinase still bound, per cent of control (STK4 (human); compound 10.0 µM): 100%
- kinase still bound, per cent of control (DCLK3 (human); compound 10.0 µM): 100%
- kinase still bound, per cent of control (RIOK2 (human); compound 10.0 µM): 3.2%
- kinase still bound, per cent of control ([3]; compound 10.0 µM): 64%
- kinase still bound, per cent of control (CAMK4 (human); compound 10.0 µM): 100%
- kinase still bound, per cent of control (TRPM6 (human); compound 10.0 µM): 52%
- kinase still bound, per cent of control (EIF2AK2 (human); compound 10.0 µM): 100%
- kinase still bound, per cent of control (FGFR2 (human); compound 10.0 µM): 100%
- kinase still bound, per cent of control ([4]; compound 10.0 µM): 100%
- kinase still bound, per cent of control (RPS6KA5 KD1 (human); compound 10.0 µM): 90%
- kinase still bound, per cent of control (SNRK (human); compound 10.0 µM): 92%
- kinase still bound, per cent of control ([5]; compound 10.0 µM): 56%
- kinase still bound, per cent of control (IRAK3 (human); compound 10.0 µM): 28%

SMILES: CN(C)C/C=C/C(=O)Nc1cccc(C(=O)Nc2ccc(Nc3nccc(/C(C#N)=C4\Nc5ccccc5S4)n3)cc2)c1
- kinase still bound, per cent of control (RIOK3 (human); compound 1.0 µM): 100%
- kinase still bound, per cent of control ([1]; compound 1.0 µM): 100%
- kinase still bound, per cent of control (TESK1 (human); compound 1.0 µM): 100%
- kinase still bound, per cent of control (PAK2 (human); compound 1.0 µM): 100%
- kinase still bound, per cent of control (PRKCE (human); compound 1.0 µM): 100%
- kinase still bound, per cent of control (EPHA3 (human); compound 1.0 µM): 100%
- kinase still bound, per cent of control ([2]; compound 1.0 µM): 100%
- kinase still bound, per cent of control (MAP3K7 (human); compound 1.0 µM): 58%
- kinase still bound, per cent of control (STK33 (human); compound 1.0 µM): 100%
- kinase still bound, per cent of control (MAP3K6 (human); compound 1.0 µM): 100%
- kinase still bound, per cent of control (PAK3 (human); compound 1.0 µM): 84%
- kinase still bound, per cent of control (TTK (human); compound 1.0 µM): 100%
- kinase still bound, per cent of control (MARK1 (human); compound 1.0 µM): 100%
- kinase still bound, per cent of control (CASK (human); compound 1.0 µM): 100%
- kinase still bound, per cent of control (DYRK1A (human); compound 1.0 µM): 87%
- kinase still bound, per cent of control (CHEK1 (human); compound 1.0 µM): 100%
- kinase still bound, per cent of control (IGF1R (human); compound 1.0 µM): 100%
- kinase still bound, per cent of control (AKT2 (human); compound 1.0 µM): 100%
- kinase still bound, per cent of control (ADCK3 (human); compound 1.0 µM): 82%
- kinase still bound, per cent of control (MAPK15 (human); compound 1.0 µM): 76%
- kinase still bound, per cent of control (CaMK1 (human); compound 1.0 µM): 100%
- kinase still bound, per cent of control (MAP3K1 (human); compound 1.0 µM): 100%
- kinase still bound, per cent of control (CDK15 (human); compound 1.0 µM): 100%
- kinase still bound, per cent of control (ULK3 (human); compound 1.0 µM): 100%
- kinase still bound, per cent of control (CDK14 (human); compound 1.0 µM): 100%
- kinase still bound, per cent of control (STK17B (human); compound 1.0 µM): 100%
- kinase still bound, per cent of control (PLK1 (human); compound 1.0 µM): 96%
- kinase still bound, per cent of control (MLTK (human); compound 1.0 µM): 98%
- kinase still bound, per cent of control (GSK3A (human); compound 1.0 µM): 59%
- kinase still bound, per cent of control (STK4 (human); compound 1.0 µM): 100%
- kinase still bound, per cent of control (DCLK3 (human); compound 1.0 µM): 100%
- kinase still bound, per cent of control (RIOK2 (human); compound 1.0 µM): 18%
- kinase still bound, per cent of control ([3]; compound 1.0 µM): 100%
- kinase still bound, per cent of control (CAMK4 (human); compound 1.0 µM): 100%
- kinase still bound, per cent of control (TRPM6 (human); compound 1.0 µM): 100%
- kinase still bound, per cent of control (EIF2AK2 (human); compound 1.0 µM): 100%
- kinase still bound, per cent of control (FGFR2 (human); compound 1.0 µM): 100%
- kinase still bound, per cent of control ([4]; compound 1.0 µM): 100%
- kinase still bound, per cent of control (RPS6KA5 KD1 (human); compound 1.0 µM): 100%
- kinase still bound, per cent of control (SNRK (human); compound 1.0 µM): 100%
- kinase still bound, per cent of control ([5]; compound 1.0 µM): 100%
- kinase still bound, per cent of control (IRAK3 (human); compound 1.0 µM): 51%
